The values below come from US11730720B2, “ALK5 inhibitors” (THERAVANCE BIOPHARMA R&D IP, LLC, priority 2018, dated 2023).

Structures are written as SMILES.

The test system of test [1] is TGF-β-stimulated SMAD3 phosphorylation in BEAS-2B cells. The test is described as follows: Cellular ALK5 potency assay, inhibition of TGF-β stimulated pSMAD3 formation in BEAS-2B cells. It counts as cell-based. Particulars: Homo sapiens, inhibition of TGF-β (10 ng/mL) stimulated pSMAD3 formation, 1 hour compound incubation, read-out: BEAS2B pIC50 (converted). Summed up:
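Phospho-SMAD3 was quantified by AlphaLISA in lysates of human lung epithelial BEAS-2B cells. Compound was added 1 h (37 °C, HEPES/BSA-supplemented HBSS) before a 30 min challenge with 10 ng/mL TGF-β. Values are pIC50 relative to stimulated cells without compound.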

The target of test [2] is T1, recombinant human ALK5 (TGF-βR1) protein (Homo sapiens, UniProt P36897).
T1 construct: purchased Life Technologies PR9075A
T1 sequence (P36897 34-503): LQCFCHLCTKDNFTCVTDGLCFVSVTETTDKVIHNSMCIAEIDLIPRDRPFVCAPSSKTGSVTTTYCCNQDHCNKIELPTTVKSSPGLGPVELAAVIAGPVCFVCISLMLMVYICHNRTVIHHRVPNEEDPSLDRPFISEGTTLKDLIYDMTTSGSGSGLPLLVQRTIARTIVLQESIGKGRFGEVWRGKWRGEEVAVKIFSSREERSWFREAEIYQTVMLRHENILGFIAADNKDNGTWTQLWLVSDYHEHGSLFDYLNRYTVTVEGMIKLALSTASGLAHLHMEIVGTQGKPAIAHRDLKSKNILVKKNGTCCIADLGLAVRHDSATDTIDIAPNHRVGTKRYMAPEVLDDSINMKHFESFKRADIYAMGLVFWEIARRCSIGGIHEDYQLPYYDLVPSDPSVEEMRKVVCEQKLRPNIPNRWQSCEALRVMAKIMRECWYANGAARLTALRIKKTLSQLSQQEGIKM
The test is described as follows: Biochemical ALK5 (TGF-βR1) assay to measure pKi (LANCE Ultra ULight kinase assay). Particulars: apparent pKi, converted from pIC50 using the Cheng-Prusoff equation. In short, it runs like this:
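TR-FRET kinase format: compound dose range 10 μM–25 pM equilibrated 60 min with human ALK5 and ULight-labelled topoisomerase 2α peptide in HEPES/MgCl2 buffer pH 7.5 with DTT. Reaction started with ATP (125 μM stock, 5× final), 60 min at 37° C, stopped with EDTA/Eu-anti-phospho antibody; pKi derived from pIC50 via Cheng-Prusoff.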
(In general: TR-FRET usually uses a lanthanide donor and a delayed reading to cut background.)

Regarding `Fc1ccc(Cl)cc1-c1nc2ccccn2c1-c1ccc2ncc(-c3cnn(C4CCCNC4)c3)cc2c1` (stereo not drawn) [Compound 19-2, 6-[2-(5-chloro-2-fluoro-phenyl)imidazo[1,2-a]pyridin-3-yl]-3-[1-(3-piperidyl)pyrazol-4-yl]quinoline], the IC50 in test [1] was 200 to 1260 nM. Moreover, in test [2], the Ki was 0.0398 to 0.316 nM.
As for `COCc1cccc(-c2n[nH]cc2-c2ccc3ncc(N4CCN(C(C)C)CC4)cc3n2)c1` [Compound 14-5, 7-(4-isopropylpiperazin-1-yl)-2-[3-[3-(methoxymethyl)phenyl]-1H-pyrazol-4-yl]-1,5-naphthyridine], the IC50 in test [1] is 25.1 to 158 nM. Further, the Ki in test [2] is 3.98 to 31.6 nM.
Regarding `NC(=O)C1(N2CCN(c3cnc4ccc(-c5c[nH]nc5-c5cc(Cl)ccc5F)nc4c3)CC2)CCCC1` [Compound 1-32, 1-[4-[6-[3-(5-chloro-2-fluoro-phenyl)-1H-pyrazol-4-yl]-1,5-naphthyridin-3-yl]piperazin-1-yl]cyclopentanecarboxamide], in test [1], the IC50 is 25.1 to 158 nM. The Ki in test [2] was 0.0398 to 0.316 nM.
Take `CN1CC=C(c2cnc3ccc(-c4c[nH]nc4-c4ccc(F)c(F)c4)nc3c2)C1` [Compound 8-22, 2-(3-(3,4-difluorophenyl)-1H-pyrazol-4-yl)-7-(1-methyl-2,5-dihydro-1H-pyrrol-3-yl)-1,5-naphthyridine]: the IC50 in test [1] is 25.1 to 158 nM. The Ki in test [2] is 0.398 to 3.16 nM.
Turning to `Fc1cc(F)c(-c2n[nH]cc2-c2ccc3ncc(-c4[nH]nc5c4CCNC5)cc3n2)cc1Cl` [Compound 6-53, 2-[3-(5-chloro-2,4-difluoro-phenyl)-1H-pyrazol-4-yl]-7-(4,5,6,7-tetrahydro-2H-pyrazolo[3,4-c]pyridin-3-yl)-1,5-naphthyridine], the IC50 in test [1] is 25.1 to 158 nM. Moreover, in test [2], the Ki is 0.0398 to 0.316 nM.
For the compound `CCOC(=O)Cn1cc(-c2cnc3ccc(-c4c[nH]nc4-c4cc(Cl)ccc4F)nc3c2)nn1` [Compound 1-103, ethyl 2-[4-[6-[3-(5-chloro-2-fluoro-phenyl)-1H-pyrazol-4-yl]-1,5-naphthyridin-3-yl]triazol-1-yl]acetate], in test [1], the IC50 is 25.1 to 158 nM. The Ki in test [2] is at most 0.0316 nM.
For the compound `CC(C)N1CC2CN(c3cnc4ccc(-c5c[nH]nc5-c5cc(Cl)ccc5F)nc4c3)CC21` (stereo not drawn) [Compound 1-70, 2-(3-(5-chloro-2-fluorophenyl)-112-pyrazol-4-yl)-7-(6-isopropyl-3,6-diazabicyclo[3.2.0]heptan-3-yl)-1,5-naphthyridine], the IC50 in test [1] was 25.1 to 158 nM. The Ki in test [2] is 0.0398 to 0.316 nM.
The matching figures for `Fc1ccc(Cl)cc1-c1n[nH]cc1-c1ccc2ncc(NCC3CCCCN3)cc2n1` (stereo not drawn) [Compound 1-23, 6-[3-(5-chloro-2-fluoro-phenyl)-1H-pyrazol-4-yl]-N-(2-piperidylmethyl)-1,5-naphthyridin-3-amine]: 25.1 to 158 nM and 0.0398 to 0.316 nM.
Turning to `CNC1CCN(c2cnc3ccc(-c4c[nH]nc4-c4ccc(F)c(F)c4)nc3c2)CC1` [Compound 8-6, 1-[6-[3-(3,4-difluorophenyl)-1H-pyrazol-4-yl]-1,5-naphthyridin-3-yl]-N-methyl-piperidin-4-amine], in test [1], the IC50 was 25.1 to 158 nM. Also, the Ki in test [2] was 0.398 to 3.16 nM.
In the case of `COCc1cccc(-c2[nH]cnc2-c2ccc3ncc(NCCN4CCNCC4)cc3n2)c1` [Compound 15-1, 6-(5-(3-(methoxymethyl)phenyl)-1H-imidazol-4-yl)-N-(2-(piperazin-1-yl)ethyl)-1,5-naphthyridin-3-amine], the IC50 in test [1] is 200 to 1260 nM. For the same compound, the Ki in test [2] was 3.98 to 31.6 nM.
`CNCCn1cc(-c2cnc3ccc(-c4c[nH]nc4-c4cc(Cl)c(F)cc4F)nc3c2)nn1` [Compound 6-67, 2-[4-[6-[3-(5-chloro-2,4-difluoro-phenyl)-1H-pyrazol-4-yl]-1,5-naphthyridin-3-yl]triazol-1-yl]-N-methyl-ethanamine]: in test [1], the IC50 was 25.1 to 158 nM. Also, in test [2], the Ki was at most 0.0316 nM.
As for `COCc1cccc(-c2n[nH]cc2-c2ccc3ncc(N4CCC(N)C4)cc3n2)c1` (stereo not drawn) [Compound 14-6, 1-[6-[3-[3-(methoxymethyl)phenyl]-1H-pyrazol-4-yl]-1,5-naphthyridin-3-yl]pyrrolidin-3-amine], the IC50 in test [1] was 25.1 to 158 nM. The Ki in test [2] was 0.398 to 3.16 nM.
